This is an account of results in patent publication US8828971B2, “Galactose-pronged carbohydrate compounds for the treatment of diabetic nephropathy and associated disorders” (Galectin Therapeutics, Inc., priority 2012, dated 2014).

Assay [1] relates to mouse model of diabetic nephropathy. The assay can be described thus: Sirius red stained kidney sections with digital morphometry, mouse model of diabetic nephropathy. It counts as in vivo. Particulars: diabetic mice, IV 40 mg/kg three times weekly for four weeks; for Sirius red staining (interstitial collagen between renal tubules), histological appearance: FIG. 2, 40 mg/kg. On the procedure:
Shown are low (×50) and high magnification (×200) pictures of the three experimental groups: 1) Normal mouse; 2) Diabetic mice treated with vehicle (phosphate buffered saline, treatment control); and 3) Diabetic mice treated with GR-MD-02/001 B (IV 40 mg/kg). The arrows point to a stained strand that indicates the presence of collagen type.
Statistical comparisons of the percent Sirius red staining shown for the three experimental groups: 1) Normal mouse; 2) Diabetic mice treated with vehicle (phosphate buffered saline, treatment control); and 3) Diabetic mice treated with GR-MD-02/001 B (IV 40 mg/kg).
(§1) The experimental model used in this example is the mouse in which diabetes was induced and a high fat diet was administered. Diabetes was induced immediately following birth with a single injection of streptozotocin. Four weeks later the mice were started on a high fat diet.
(§2) Diabetic mice were treated either with vehicle (phosphate buffered saline) or GR-MD-02/001B given intravenously in a dose of 40 mg/kg three times weekly for four weeks total. There were eight (8) mice in each group. Two normal mice were also utilized as a comparison group.
Sirius red reagent is used as a stain to evaluate the increase in extracellular matrix material in the interstitium between tubular cells. Minimal red staining is seen in the normal animals. However, there is an increase in staining seen in the vehicle treated control animals.
Thirty two (32) separate slides from each group were blindly evaluated by quantitative digital morphometry for the percent staining with Sirius red.

Assay [2] shares this test system. Put plainly: PAS stained kidney sections, mouse model of diabetic nephropathy. It counts as in vivo. Particulars: diabetic mice, IV 40 mg/kg three times weekly for four weeks. How it is done:
Shown are low (×200) and high magnification (×400) pictures of the three experimental groups: 1) Normal mouse; 2) Diabetic mice treated with vehicle (phosphate buffered saline, treatment control); and 3) Diabetic mice treated with GR-MD-02/001 B (IV 40 mg/kg). The arrows point to a glomerulus.
as §1, §2
The diabetic mice had clear histological evidence of diabetic nephropathy as shown in pictures of PAS stained kidney sections in FIG. 1. […] In the vehicle treated control animals there is a clear increase in mesangial basement membrane material (the pink extracellular matrix) over the normal animals.

Consider “galactoarabino-rhamnogalacturonate [GR-MD-02/001B]”, for which the “Percent Sirius red staining by quantitative digital morphometry compared to vehicle treated controls” value in assay [1] (32 slides per group, levels nearly the same as normal mice, FIG. 3) is “statistically significant decrease”. In addition, the “Sirius red staining (interstitial collagen between renal tubules), histological appearance” value in assay [1] is recorded as “marked reduction”; in assay [1] (listed as GR-MD02/001B), “reduced the deposition of matrix”. Besides, the “Mesangial extracellular matrix material (PAS stain, glomerulus) compared to vehicle treated control animals” value in assay [2] (FIG. 1) is listed as “marked decrease”; in assay [2] (FIG. 1, listed as GR-MD02/001B), “reduced the mesangial expansion of extracellular matrix”.
